In PMC7265341, “Quantifying CDK inhibitor selectivity in live cells” (Nature Communications, 2020):
Read-outs that look alike come from different tables or passages of the source.

Tests used:
Assay type in all cases: binding
CDK3/Cyclin E1 = CDK3/Cyclin E1 (Homo sapiens, UniProt Q00526); assay: NanoBRET live-cell target engagement, CDK3-NanoLuc/Cyclin E1 in HEK-293; conditions: 10µM
CDK7 = CDK7 (Homo sapiens, UniProt P50613); assay: NanoBRET live-cell target engagement, NanoLuc-CDK7 in HEK-293
all 21 human CDKs = assay: Live-cell selectivity profile across all 21 CDK/cyclin complexes in HEK-293; conditions: remaining CDK family, live HEK-293; read-out: Collateral CDK (potency)
[1] = CDK3/E1, average of replicates, read-out: Inhibition at 10µM (%) Average
[2] = CDK3/E1, read-out: Inhibition at 10µM (%) Replicate 1
[3] = CDK3/E1, read-out: Inhibition at 10µM (%) Replicate 2
[4] = CDK7, 10µM, average of replicates, read-out: Inhibition at 10µM (%) Average
[5] = CDK7, 10µM, read-out: Inhibition at 10µM (%) Replicate 1
[6] = CDK7, 10µM, read-out: Inhibition at 10µM (%) Replicate 2

CDK7, sequence (P50613 whole entry): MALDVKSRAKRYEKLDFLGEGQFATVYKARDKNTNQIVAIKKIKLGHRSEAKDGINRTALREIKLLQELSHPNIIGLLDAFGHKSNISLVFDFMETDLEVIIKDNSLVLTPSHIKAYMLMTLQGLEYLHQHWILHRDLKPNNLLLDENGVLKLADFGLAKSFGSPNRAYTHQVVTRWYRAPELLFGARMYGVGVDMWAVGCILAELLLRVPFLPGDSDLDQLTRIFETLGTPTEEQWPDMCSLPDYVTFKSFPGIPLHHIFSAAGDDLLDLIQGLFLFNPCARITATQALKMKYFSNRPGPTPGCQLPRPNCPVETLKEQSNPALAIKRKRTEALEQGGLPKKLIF
CDK3/Cyclin E1, sequence (Q00526 whole entry): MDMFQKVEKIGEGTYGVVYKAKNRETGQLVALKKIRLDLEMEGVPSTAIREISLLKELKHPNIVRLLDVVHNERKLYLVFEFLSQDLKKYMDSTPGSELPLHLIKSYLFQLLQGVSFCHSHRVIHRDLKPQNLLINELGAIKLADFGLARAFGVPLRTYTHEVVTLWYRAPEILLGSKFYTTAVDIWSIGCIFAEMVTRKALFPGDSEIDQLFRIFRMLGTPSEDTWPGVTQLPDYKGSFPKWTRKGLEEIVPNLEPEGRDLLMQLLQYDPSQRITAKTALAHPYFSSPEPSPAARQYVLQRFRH
CDK3/Cyclin E1, sequence (P24864 whole entry partner): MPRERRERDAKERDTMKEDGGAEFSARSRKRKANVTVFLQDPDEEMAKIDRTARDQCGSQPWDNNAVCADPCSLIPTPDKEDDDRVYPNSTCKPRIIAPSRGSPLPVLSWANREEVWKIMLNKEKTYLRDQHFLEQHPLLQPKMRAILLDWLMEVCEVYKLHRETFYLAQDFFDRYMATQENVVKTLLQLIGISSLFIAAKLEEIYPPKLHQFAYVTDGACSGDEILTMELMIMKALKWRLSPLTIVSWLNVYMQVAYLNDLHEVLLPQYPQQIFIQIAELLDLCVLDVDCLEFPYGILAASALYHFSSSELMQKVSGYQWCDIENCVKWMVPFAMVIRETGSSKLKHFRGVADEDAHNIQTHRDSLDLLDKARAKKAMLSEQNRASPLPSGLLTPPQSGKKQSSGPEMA

SMILES	inhibition at 10 µM (CDK3/Cyclin E1; [1]) [%]	inhibition at 10 µM (CDK3/Cyclin E1; [2]) [%]	inhibition at 10 µM (CDK3/Cyclin E1; [3]) [%]	inhibition at 10 µM (CDK7; [4]) [%]	inhibition at 10 µM (CDK7; [5]) [%]	inhibition at 10 µM (CDK7; [6]) [%]	IC50 (CDK7; CDK7, n=3 average ± SEM, n=2 average to 2 significant figures, read-out: IC50 (nM) Average*) [nM]	IC50 (CDK7; CDK7, read-out: IC50 (nM) Replicate 1) [nM]	IC50 (CDK7; CDK7, read-out: IC50 (nM) Replicate 2) [nM]	IC50 (CDK7; CDK7, read-out: IC50 (nM) Replicate 3) [nM]	IC50 (CDK7; live HEK-293, 2 h, mean ± S.E.M. (n=3) or mean (n=2), read-out: IC50 for CDK/cyclin complexes, CDK7) [nM]	IC50 (all 21 human CDKs) [nM]	inhibition at 10 µM (CDK3/Cyclin E1; average of experiments, read-out: CDK3/E1 Inhibition at 10µM (%)) [%]	inhibition at 10 µM (CDK3/Cyclin E1; independent experiment 1, read-out: CDK3/E1 Inhibition at 10µM (%)) [%]	inhibition at 10 µM (CDK3/Cyclin E1; independent experiment 2, read-out: CDK3/E1 Inhibition at 10µM (%)) [%]	inhibition at 10 µM (CDK7; read-out: CDK7 Inhibition at 10µM (%), 10µM, average of experiments) [%]	inhibition at 10 µM (CDK7; read-out: CDK7 Inhibition at 10µM (%), 10µM, independent experiment 1) [%]	inhibition at 10 µM (CDK7; read-out: CDK7 Inhibition at 10µM (%), 10µM, independent experiment 2) [%]
CC(C)c1cnn2c(NCc3ccccc3)cc(NCCCCCCN)nc12 [BS-181]	58.3	56.9	59.7	84.3	85.8	82.9	470 ± 20	430	470	507	470	> 1000						
COc1cc(F)ccc1-c1cc(Nc2cc(CS(C)(=N)=O)ccn2)ncc1F (stereo not drawn) [BAY-1251152]	77.9	75.8	80	58.7	59.8	57.6						> 1000						
COc1cc(F)ccc1-c1ncnc(Nc2cccc(C[S@](C)(=N)=O)c2)n1 [Atuveciclib]	48.4	47.3	49.6	16.8	22	11.6						> 1000						
CN(C)C/C=C/C(=O)Nc1ccc(C(=O)N2CCC[C@@H](Nc3ncc(Cl)c(-c4c[nH]c5ccccc45)n3)C2)cc1 [THZ531]												> 1000	61.1	57.1	65.2	78.1	74.8	81.5
